Data: patent publication US9695155B2, “Herbicidal substituted pyrimidinyloxy benzene compounds” (E. I. DU PONT DE NEMOURS AND COMPANY, priority 2013, dated 2017)

Assays:
morningglory [1] = assay: Test A postemergence; type: in vivo, Ipomoea spp.
How it was run: (§1)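 Injury scores run from 0, no effect, to 100, complete control, judged by eye against untreated plants roughly 10 days after treatment. Chemicals carried a surfactant in a non-phytotoxic solvent and went onto loam–sand soil preemergence or onto one- to two-leaf seedlings postemergence.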

corn [2] = assay: Test A postemergence; type: in vivo, Zea mays
How it was run: as §1

giant foxtail [3] = assay: Test A preemergence; type: in vivo, Setaria faberii
How it was run: as §1

large (Lg) crabgrass [4] = assay: Test A postemergence; type: in vivo, Digitaria sanguinalis
Text: (§2) Seeds of plant species selected from barnyardgrass (Echinochloa crus-galli), kochia (Kochia scoparia), ragweed (common ragweed, Ambrosia elatior), Italian ryegrass (Lolium multiflorum), large (Lg) crabgrass (Digitaria sanguinalis), giant foxtail (Setaria faberii), morningglory (Ipomoea spp.), pigweed (Amaranthus retroflexus), velvetleaf (Abutilon theophrasti), wheat (Triticum aestivum), and corn (Zea mays) were planted into a blend of loam soil and sand and treated preemergence with a directed soil spray using test chemicals formulated in a non-phytotoxic solvent mixture which included a surfactant.
(§3) At the same time, plants selected from these crop and weed species and also blackgrass (Alopecurus myosuroides), and galium (catchweed bedstraw, Galium aparine) were planted in pots containing the same blend of loam soil and sand and treated with postemergence applications of test chemicals formulated in the same manner. Plants ranged in height from 2 to 10 cm and were in the one- to two-leaf stage for the postemergence treatment. Treated plants and untreated controls were maintained in a greenhouse for approximately 10 days, after which time all treated plants were compared to untreated controls and visually evaluated for injury. Plant response ratings, summarized in Table A, are based on a 0 to 100 scale where 0 is no effect and 100 is complete control. A dash (-) response means no test result.

large (Lg) crabgrass [5] = assay: Test A preemergence; type: in vivo, Digitaria sanguinalis
Text: as §2, §3

barnyardgrass [6] = assay: Test A postemergence; type: in vivo, Echinochloa crus-galli
How it was run: as §1

pigweed [7] = assay: Test A preemergence; type: in vivo, Amaranthus retroflexus
Text: as §2, §3

pigweed [8] = assay: Test A postemergence; type: in vivo, Amaranthus retroflexus
How it was run: as §1

giant foxtail [9] = assay: Test A postemergence; type: in vivo, Setaria faberii
How it was run: as §1

velvetleaf [10] = assay: Test A preemergence; type: in vivo, Abutilon theophrasti
Text: as §2, §3

sedge, umbrella = assay: Test B flooded paddy test; type: in vivo, Cyperus difformis; conditions: Flood, 250 g ai/ha; 0 to 100 scale where 0 is no effect and 100 is complete control
How it was run: (§4)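 Greenhouse flooded-pot test: compounds dosed into 3 cm standing water over 2-leaf plants, flood held constant. Rated visually after 13–15 days on 0–100 (complete control = 100); a dash marks no test result.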

Heteranthera limosa = assay: Test B flooded paddy test; type: in vivo; conditions: Flood, 250 g ai/ha; 0 to 100 scale where 0 is no effect and 100 is complete control
How it was run: as §4

wheat [11] = assay: Test A postemergence; type: in vivo, Triticum aestivum
Text: as §2, §3

wheat [12] = assay: Test A preemergence; type: in vivo, Triticum aestivum
How it was run: as §1

morningglory [13] = assay: Test A preemergence; type: in vivo, Ipomoea spp.
How it was run: as §1

barnyardgrass [14] = assay: Test B flooded paddy test; type: in vivo, Echinochloa crus-galli; conditions: Flood, 250 g ai/ha; 0 to 100 scale where 0 is no effect and 100 is complete control
Experimental: Plant species in the flooded paddy test selected from rice (Oryza sativa), sedge, umbrella (small-flower umbrella sedge, Cyperus difformis), (Heteranthera limosa), and barnyardgrass (Echinochloa crus-galli) were grown to the 2-leaf stage for testing. At time of treatment, test pots were flooded to 3 cm above the soil surface, treated by application of test compounds directly to the paddy water, and then maintained at that water depth for the duration of the test. Treated plants and controls were maintained in a greenhouse for 13 to 15 days, after which time all species were compared to controls and visually evaluated. Plant response ratings, summarized in Table B, are based on a scale of 0 to 100 where 0 is no effect and 100 is complete control. A dash (-) response means no test result.

velvetleaf [15] = assay: Test A postemergence; type: in vivo, Abutilon theophrasti
Text: as §2, §3

rice = assay: Test B flooded paddy test; type: in vivo, Oryza sativa; conditions: Flood, 250 g ai/ha; 0 to 100 scale where 0 is no effect and 100 is complete control
How it was run: as §4

corn [16] = assay: Test A preemergence; type: in vivo, Zea mays
Text: as §2, §3

barnyardgrass [17] = assay: Test A preemergence; type: in vivo, Echinochloa crus-galli
Text: as §2, §3

[18] = 125 g ai/ha, 0 to 100 scale where 0 is no effect and 100 is complete control
[19] = 500 g ai/ha, 0 to 100 scale, 0 no effect, 100 complete control
[20] = 500 g ai/ha, 0 to 100 scale, 0 no effect, 100 complete control, approx. 10 days

| Compound | Plant response rating, Morningglory (morningglory [1]; [18]) | Plant response rating, Morningglory (morningglory [1]; [19]) | Plant response rating, Corn (corn [2]; [18]) | Plant response rating, Corn (corn [2]; [19]) | Foxtail, Giant plant response rating (giant foxtail [3]; [20]) | Plant response rating, Crabgrass, Large (large (Lg) crabgrass [4]; [18]) | Plant response rating, Crabgrass, Large (large (Lg) crabgrass [4]; [19]) | Crabgrass, Large plant response rating (large (Lg) crabgrass [5]; [20]) | Plant response rating, Barnyardgrass (barnyardgrass [6]; [18]) | Plant response rating, Barnyardgrass (barnyardgrass [6]; [19]) | Pigweed plant response rating (pigweed [7]; [20]) | Plant response rating, Pigweed (pigweed [8]; [18]) | Plant response rating, Pigweed (pigweed [8]; [19]) | Plant response rating, Foxtail, Giant (giant foxtail [9]; [18]) | Plant response rating, Foxtail, Giant (giant foxtail [9]; [19]) | Velvetleaf plant response rating (velvetleaf [10]; [20]) | Plant response rating, Sedge, Umbrella (sedge, umbrella) | Plant response rating, Ducksalad (Heteranthera limosa) | Plant response rating, Wheat (wheat [11]; [18]) | Plant response rating, Wheat (wheat [11]; [19]) | also measured |
| --- | --- | --- | --- | --- | --- | --- | --- | --- | --- | --- | --- | --- | --- | --- | --- | --- | --- | --- | --- | --- | --- |
| FC(F)(F)c1cnc(Oc2ccccc2-n2ccc(C(F)(F)F)n2)nc1 [Compound 4] | 0 | 0 | 0 | 0 | 0 | 0 | 0 | 0 | 0 | 0 | 0 | 0 | 20 | 0 | 0 | 0 | 0 | 0 | 0 | 0 | Foxtail, Giant plant response rating (giant foxtail [3]; [18]): 0; Crabgrass, Large plant response rating (large (Lg) crabgrass [5]; [18]): 0; Pigweed plant response rating (pigweed [7]; [18]): 0; Velvetleaf plant response rating (velvetleaf [10]; [18]): 0; Wheat plant response rating (wheat [12]; [18]): 0; Wheat plant response rating (wheat [12]; [20]): 0; Morningglory plant response rating (morningglory [13]; [18]): 0; Morningglory plant response rating (morningglory [13]; [20]): 0; Plant response rating, Barnyardgrass (barnyardgrass [14]): 0; Plant response rating, Velvetleaf (velvetleaf [15]; [18]): 0; Plant response rating, Velvetleaf (velvetleaf [15]; [19]): 0; Plant response rating, Rice (rice): 0; Corn plant response rating (corn [16]; [18]): 0; Corn plant response rating (corn [16]; [20]): 0; Barnyardgrass plant response rating (barnyardgrass [17]; [18]): 0; Barnyardgrass plant response rating (barnyardgrass [17]; [20]): 0 |
| Cc1cnc(Oc2ccccc2-n2cc(Br)cn2)nc1 [Compound 9] | 20 | 30 | 20 | 50 | 90 | 30 | 80 | 100 | 30 | 90 | 100 | 80 | 90 | 30 | 90 | 100 | 60 | 80 | 0 | 30 | Foxtail, Giant plant response rating (giant foxtail [3]; [18]): 80; Crabgrass, Large plant response rating (large (Lg) crabgrass [5]; [18]): 90; Pigweed plant response rating (pigweed [7]; [18]): 100; Velvetleaf plant response rating (velvetleaf [10]; [18]): 80; Wheat plant response rating (wheat [12]; [18]): 0; Wheat plant response rating (wheat [12]; [20]): 0; Morningglory plant response rating (morningglory [13]; [18]): 0; Morningglory plant response rating (morningglory [13]; [20]): 0; Plant response rating, Barnyardgrass (barnyardgrass [14]): 0; Plant response rating, Velvetleaf (velvetleaf [15]; [18]): 100; Plant response rating, Velvetleaf (velvetleaf [15]; [19]): 100; Plant response rating, Rice (rice): 0; Corn plant response rating (corn [16]; [18]): 0; Corn plant response rating (corn [16]; [20]): 20; Barnyardgrass plant response rating (barnyardgrass [17]; [18]): 30; Barnyardgrass plant response rating (barnyardgrass [17]; [20]): 100 |
| Cc1cnc(Oc2ccccc2-n2cc(Cl)cn2)nc1 [Compound 15] | 10 | 20 | 0 | 20 | 100 | 10 | 60 | 100 | 0 | 60 | 100 | 70 | 100 | 10 | 70 | 100 | 85 | 75 | 0 | 10 | Foxtail, Giant plant response rating (giant foxtail [3]; [18]): 30; Crabgrass, Large plant response rating (large (Lg) crabgrass [5]; [18]): 40; Pigweed plant response rating (pigweed [7]; [18]): 90; Velvetleaf plant response rating (velvetleaf [10]; [18]): 60; Wheat plant response rating (wheat [12]; [18]): 0; Wheat plant response rating (wheat [12]; [20]): 0; Morningglory plant response rating (morningglory [13]; [18]): 0; Morningglory plant response rating (morningglory [13]; [20]): 0; Plant response rating, Barnyardgrass (barnyardgrass [14]): 20; Plant response rating, Velvetleaf (velvetleaf [15]; [18]): 90; Plant response rating, Velvetleaf (velvetleaf [15]; [19]): 100; Plant response rating, Rice (rice): 20; Corn plant response rating (corn [16]; [18]): 0; Corn plant response rating (corn [16]; [20]): 0; Barnyardgrass plant response rating (barnyardgrass [17]; [18]): 20; Barnyardgrass plant response rating (barnyardgrass [17]; [20]): 100 |
| Brc1cnc(Oc2ccccc2-n2ccc(Br)n2)nc1 [Compound 20] | 40 | 40 | 0 | 30 | 80 | 0 | 30 | 90 | 0 | 30 | 90 | 80 | 100 | 0 | 60 | 0 | 75 | 60 | 0 | 20 | Plant response rating, Foxtail, Giant (giant foxtail [3]; [18]): 20; Plant response rating, Crabgrass, Large (large (Lg) crabgrass [5]; [18]): 20; Plant response rating, Pigweed (pigweed [7]; [18]): 30; Plant response rating, Velvetleaf (velvetleaf [10]; [18]): 0; Plant response rating, Wheat (wheat [12]; [18]): 0; Wheat plant response rating (wheat [12]; [20]): 0; Plant response rating, Morningglory (morningglory [13]; [18]): 0; Morningglory plant response rating (morningglory [13]; [20]): 0; Plant response rating, Barnyardgrass (barnyardgrass [14]): 20; Plant response rating, Velvetleaf (velvetleaf [15]; [18]): 20; Plant response rating, Velvetleaf (velvetleaf [15]; [19]): 70; Plant response rating, Rice (rice): 45; Plant response rating, Corn (corn [16]; [18]): 0; Corn plant response rating (corn [16]; [20]): 0; Plant response rating, Barnyardgrass (barnyardgrass [17]; [18]): 0; Barnyardgrass plant response rating (barnyardgrass [17]; [20]): 20 |
| Clc1cnc(Oc2ccccc2-n2ccc(Br)n2)nc1 [Compound 21] | 40 | 80 | 0 | 30 | 100 | 20 | 50 | 100 | 0 | 40 | 100 | 90 | 100 | 30 | 90 | 20 | 70 | 40 | 0 | 20 | Plant response rating, Foxtail, Giant (giant foxtail [3]; [18]): 70; Plant response rating, Crabgrass, Large (large (Lg) crabgrass [5]; [18]): 90; Plant response rating, Pigweed (pigweed [7]; [18]): 90; Plant response rating, Velvetleaf (velvetleaf [10]; [18]): 0; Plant response rating, Wheat (wheat [12]; [18]): 0; Wheat plant response rating (wheat [12]; [20]): 0; Plant response rating, Morningglory (morningglory [13]; [18]): 0; Morningglory plant response rating (morningglory [13]; [20]): 0; Plant response rating, Barnyardgrass (barnyardgrass [14]): 25; Plant response rating, Velvetleaf (velvetleaf [15]; [18]): 50; Plant response rating, Velvetleaf (velvetleaf [15]; [19]): 80; Plant response rating, Rice (rice): 15; Plant response rating, Corn (corn [16]; [18]): 0; Corn plant response rating (corn [16]; [20]): 0; Plant response rating, Barnyardgrass (barnyardgrass [17]; [18]): 20; Barnyardgrass plant response rating (barnyardgrass [17]; [20]): 30 |
